Biological target: T1, sGC enzyme (Homo sapiens, UniProt Q02108+Q02153)
T1 construct: sGC enzyme activity values in HEK cells, determined by the GloSensor assay; host or cells: HEK293 cells stably expressing GloSensor 40F cGMP biosensor
T1 sequence (Q02153 1-619): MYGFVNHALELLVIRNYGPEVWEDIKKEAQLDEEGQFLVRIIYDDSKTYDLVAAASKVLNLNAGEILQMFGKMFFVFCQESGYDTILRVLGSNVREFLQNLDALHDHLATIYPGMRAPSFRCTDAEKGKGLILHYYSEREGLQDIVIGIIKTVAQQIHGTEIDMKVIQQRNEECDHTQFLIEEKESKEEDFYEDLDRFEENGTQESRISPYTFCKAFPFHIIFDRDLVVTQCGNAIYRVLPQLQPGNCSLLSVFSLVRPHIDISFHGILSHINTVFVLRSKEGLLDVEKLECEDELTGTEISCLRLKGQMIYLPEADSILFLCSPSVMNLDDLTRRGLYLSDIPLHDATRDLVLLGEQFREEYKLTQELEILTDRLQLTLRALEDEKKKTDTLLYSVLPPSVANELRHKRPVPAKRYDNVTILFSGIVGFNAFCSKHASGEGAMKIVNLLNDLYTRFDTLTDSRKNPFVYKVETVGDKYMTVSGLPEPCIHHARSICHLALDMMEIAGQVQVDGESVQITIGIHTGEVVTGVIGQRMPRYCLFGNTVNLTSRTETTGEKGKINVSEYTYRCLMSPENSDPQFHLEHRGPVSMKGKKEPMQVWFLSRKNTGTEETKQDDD
T1 sequence (Q02108 1-690): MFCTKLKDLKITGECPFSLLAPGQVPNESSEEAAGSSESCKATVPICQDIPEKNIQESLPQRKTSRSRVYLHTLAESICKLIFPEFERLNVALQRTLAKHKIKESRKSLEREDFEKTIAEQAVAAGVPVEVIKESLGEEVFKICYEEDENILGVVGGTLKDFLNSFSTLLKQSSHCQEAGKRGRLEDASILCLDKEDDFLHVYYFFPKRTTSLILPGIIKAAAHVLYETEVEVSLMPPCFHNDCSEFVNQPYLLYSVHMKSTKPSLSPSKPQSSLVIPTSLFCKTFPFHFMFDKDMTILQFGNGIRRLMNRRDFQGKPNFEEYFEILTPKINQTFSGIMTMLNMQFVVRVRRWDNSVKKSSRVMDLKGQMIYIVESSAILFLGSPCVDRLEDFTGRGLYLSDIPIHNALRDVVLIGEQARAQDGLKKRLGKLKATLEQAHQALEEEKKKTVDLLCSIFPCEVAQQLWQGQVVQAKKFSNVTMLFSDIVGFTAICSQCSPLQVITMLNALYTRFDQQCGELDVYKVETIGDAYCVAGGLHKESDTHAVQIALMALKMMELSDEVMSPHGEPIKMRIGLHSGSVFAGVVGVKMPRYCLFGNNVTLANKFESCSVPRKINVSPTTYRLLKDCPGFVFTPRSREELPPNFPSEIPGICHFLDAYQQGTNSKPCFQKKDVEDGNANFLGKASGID
Assay: cGMP GloSensor cell-based assay, 384-well format (Example 2a)
Conditions: HEK293 GloSensor 40F cGMP cells; 10 μM DETA-NONOate; 50% of high control (30 μM Compound Y); read-out: Abs EC50
Text: Human embryonic kidney cells (HEK293) cells expressing GloSensor™ 40F cGMP (Part No: CS182801, Promega) were used to evaluate the activity of test compounds. The luminescent biosensors (engineered luciferase) that were incorporated into these cells detect cGMP formed by the compounds stimulating the sGC enzyme and emit luminescence.
cGMP GloSensor cells were maintained in Dulbecco's Modification of Eagle's Medium (DMEM) supplemented with fetal bovine serum (FBS, 10% final) and hygromycine (200 ug/ml). The day before assay, cells were plated in DMEM with 10% FBS in a 50 μL volume at a density of 1.5×10^4 cells/well in a poly-D-lysine coated 384-well flat white-bottom plate (Corning Cat No 35661). Cells were incubated overnight at 37° C. in a humidified chamber with 5% CO2. The next day, medium was removed and cells were replaced with 40 ul/well of GloSensor™, 2 mM (Promega Cat No E1291). Cells were treated for 90 minutes at 25° C. to allow the substrate to equilibrate in the cells. Test compounds and Diethylenetriamine NONOate (DETA-NONOate, or DETA-NO) was diluted to 3 mM (20×) in serum-free CO2 independent medium and serially diluted at 4× dilutions to create 5× dose curve from which 10 ul was added to the wells (x μM concentration for test compound solution and 10 μM concentration for DETA-NONOate solution; wherein x is one of the following final concentrations: 30000 nM, 7500 nM, 1875 nM, 468.8 nM, 117.2 nM, 29.29 nM, 7.320 nM, 1.830 nM, 0.460 nM, 0.114 nM, and 0.029 nM).
For the kinetics studies, luminescense was measured right away for 0.2 sec per well with Envision (Perkin Elmer). For endpoint SAR screening, data were collected after 55 min incubation at room temperature.
Data were normalized to a high control using the following equation: 100*(Sample−Low Control)/(High Control−Low Control), where the low control is the average of 16 samples treated with 1% DMSO, and the high control is the average of 16 samples treated with 30 μM of Compound Y depicted below. Data were fit using a 4-parameter fit (log(agonist) vs. response—variable slope) using GraphPad Prism Software v.5. n=2 for all compounds. The Absolute (Abs) EC50 was interpolated from the curve fit and is defined as the concentration at which a given compound elicits 50% of the high control response after data normalization as indicated above. Compounds failing to elicit a minimum response of 50% are reported as >30 μM or ND. For compounds run in duplicate or n higher than 2, the result herein given is the geometric mean of the several results obtained.

| EC50 [nM] | SMILES |
| --- | --- |
| 100 to 1000 | Fc1ccccc1Cc1nc(-c2nc(C3CC3(F)F)n[nH]2)cn2ccnc12 (racemic) [Compound I-64, rac-6-(3-(2,2-Difluorocyclopropyl)-1H-1,2,4-triazol-5-yl)-8-(2-fluorobenzyl)imidazo[1,2-a]pyrazine] |
| 100 to 1000 | Cc1n[nH]c(-c2cn3ccnc3c(Cc3ccccc3F)n2)n1 [Compound I-4, 8-(2-fluorobenzyl)-6-(3-methyl-1H-1,2,4-triazol-5-yl)imidazo[1,2-a]pyrazine] |
| ≤ 100 | Fc1cccc(Cc2nc(-c3nc(C(F)F)n[nH]3)cn3ncnc23)c1F [Compound I-17, 8-(2,3-Difluorobenzyl)-6-(3-(difluoromethyl)-1H-1,2,4-triazol-5-yl)-[1,2,4]triazolo[1,5-a]pyrazine] |
| ≤ 100 | Fc1cccc(Cc2nc(-c3nc(C(F)(F)F)n[nH]3)cn3ncnc23)c1F [Compound I-18, 8-(2,3-Difluorobenzyl)-6-(3-(trifluoromethyl)-1H-1,2,4-triazol-5-yl)-[1,2,4]triazolo[1,5-a]pyrazine] |
| > 1000 | Fc1cccc(F)c1Cc1nc(-c2nc(C(F)(F)F)n[nH]2)cn2ccnc12 [Compound I-19, 8-(2,6-Difluorobenzyl)-6-(3-(trifluoromethyl)-1H-1,2,4-triazol-5-yl)imidazo[1,2-a]pyrazine] |
| > 1000 | Fc1cccc(F)c1Cc1nc(-c2nc(C(F)F)n[nH]2)cn2ccnc12 [Compound I-20, 8-(2,6-Difluorobenzyl)-6-(3-(difluoromethyl)-1H-1,2,4-triazol-5-yl)imidazo[1,2-a]pyrazine] |
| ≤ 100 | Fc1cccc(Cc2nc(-c3nc(C(F)F)n[nH]3)cn3ncnc23)c1 [Compound I-21, 6-(3-(Difluoromethyl)-1H-1,2,4-triazol-5-yl)-8-(3-fluorobenzyl)-[1,2,4]triazolo[1,5-a]pyrazine] |
| ≤ 100 | Fc1cccc(Cc2nc(-c3nc(C(F)(F)F)n[nH]3)cn3ncnc23)c1 [Compound I-22, 8-(3-Fluorobenzyl)-6-(3-(trifluoromethyl)-1H-1,2,4-triazol-5-yl)-[1,2,4]triazolo[1,5-a]pyrazine] |
| ≤ 100 | Fc1ccc(F)c(Cc2nc(-c3nc(C(F)F)n[nH]3)cn3ncnc23)c1 [Compound I-23, 8-(2,5-Difluorobenzyl)-6-(3-(difluoromethyl)-1H-1,2,4-triazol-5-yl)-[1,2,4]triazolo[1,5-a]pyrazine] |
| ≤ 100 | Fc1cc(F)cc(Cc2nc(-c3nc(C(F)(F)F)n[nH]3)cn3ncnc23)c1 [Compound I-24, 8-(3,5-Difluorobenzyl)-6-(3-(trifluoromethyl)-1H-1,2,4-triazol-5-yl)-[1,2,4]triazolo[1,5-a]pyrazine] |
| ≤ 100 | Fc1cc(F)cc(Cc2nc(-c3nc(C(F)F)n[nH]3)cn3ncnc23)c1 [Compound I-25, 8-(3,5-Difluorobenzyl)-6-(3-(difluoromethyl)-1H-1,2,4-triazol-5-yl)-[1,2,4]triazolo[1,5-a]pyrazine] |
| ≤ 100 | Fc1ccccc1Cc1nc(-c2nc(C(F)F)n[nH]2)cn2ncnc12 [Compound I-26, 6-(3-(Difluoromethyl)-1H-1,2,4-triazol-5-yl)-8-(2-fluorobenzyl)-[1,2,4]triazolo[1,5-a]pyrazine] |
| ≤ 100 | Fc1cc(F)cc(Cc2nc(-c3nc(C(F)(F)F)n[nH]3)cn3ccnc23)c1 [Compound I-29, 8-(3,5-Difluorobenzyl)-6-(3-(trifluoromethyl)-1H-1,2,4-triazol-5-yl)imidazo[1,2-a]pyrazine] |
| ≤ 100 | Fc1cc(F)cc(Cc2nc(-c3nc(C(F)F)n[nH]3)cn3ccnc23)c1 [Compound I-30, 8-(3,5-Difluorobenzyl)-6-(3-(difluoromethyl)-1H-1,2,4-triazol-5-yl)imidazo[1,2-a]pyrazine] |
| 100 to 1000 | Cc1cn2cc(-c3nc(C(F)(F)F)n[nH]3)nc(Cc3ccccc3F)c2n1 [Compound I-31, 8-(2-Fluorobenzyl)-2-methyl-6-(3-(trifluoromethyl)-1H-1,2,4-triazol-5-yl)imidazo[1,2-a]pyrazine] |
| > 1000 | Cc1cn2cc(-c3nc(C(F)F)n[nH]3)nc(Cc3ccccc3F)c2n1 [Compound I-32, 6-(3-(Difluoromethyl)-1H-1,2,4-triazol-5-yl)-8-(2-fluorobenzyl)-2-methylimidazo[1,2-a]pyrazine] |
| ≤ 100 | Fc1ccc(F)c(Cc2nc(-c3nc(C(F)(F)F)n[nH]3)cn3ncnc23)c1 [Compound I-33, 8-(2,5-Difluorobenzyl)-6-(3-(trifluoromethyl)-1H-1,2,4-triazol-5-yl)-[1,2,4]triazolo[1,5-a]pyrazine] |
| ≤ 100 | Cc1c(F)cc(Cc2nc(-c3nc(C(F)(F)F)n[nH]3)cn3ccnc23)cc1F [Compound I-34, 8-(3,5-Difluoro-4-methylbenzyl)-6-(3-(trifluoromethyl)-1H-1,2,4-triazol-5-yl)imidazo[1,2-a]pyrazine] |
| ≤ 100 | Cc1c(F)cc(Cc2nc(-c3nc(C(F)F)n[nH]3)cn3ccnc23)cc1F [Compound I-35, 8-(3,5-Difluoro-4-methylbenzyl)-6-(3-(difluoromethyl)-1H-1,2,4-triazol-5-yl)imidazo[1,2-a]pyrazine] |
| > 1000 | Cn1cnc2c(Cc3ccccc3F)nc(-c3nc(C(F)(F)F)n[nH]3)cc21 [Compound I-36, 4-(2-Fluorobenzyl)-1-methyl-6-(3-(trifluoromethyl)-1H-1,2,4-triazol-5-yl)-1H-imidazo[4,5-c]pyridine] |
| > 1000 | Cn1cnc2c(Cc3ccccc3F)nc(-c3nc(C(F)(F)F)n[nH]3)nc21 [Compound I-37, 6-(2-Fluorobenzyl)-9-methyl-2-(3-(trifluoromethyl)-1H-1,2,4-triazol-5-yl)-9H-purine] |
| ≤ 100 | Cc1nc(-c2cn3ccnc3c(Cc3ccccc3F)n2)nn1CC(F)(F)F [Compound I-38, 8-(2-fluorobenzyl)-6-(5-methyl-1-(2,2,2-trifluoroethyl)-1H-1,2,4-triazol-3-yl)imidazo[1,2-a]pyrazine] |
| ≤ 100 | Cc1nc(-c2cn3ccnc3c(Cc3ccccc3F)n2)nn1Cc1ccc(F)cc1 [Compound I-41, 8-(2-Fluorobenzyl)-6-(1-(4-fluorobenzyl)-5-methyl-1H-1,2,4-triazol-3-yl)imidazo[1,2-a]pyrazine] |

Reference: patent US11731977B2, “SGC stimulators” (Cyclerion Therapeutics, Inc., priority 2016, dated 2023)
